Where a name gives a salt, the structure may show the parent alone.
Key:
[1] = Solubility: excess solid in water, pH 1.0 or pH 4.5 buffer, filtrate analyzed by HPLC-UV; type: physicochemical; details: for pH given with the water solubility: water solubility sample; for Water solubility / Solubility in pH 1 buffer / Solubility in pH 4.5 buffer: room temperature; for Water solubility: suspension dispersed for at least 24, filtered, HPLC-UV, pH given in brackets
Experimental: An excess of solid was added to water, pH 1.0 or pH 4.5 buffer to produce a suspension and dispersed for at least 24 at room temperature. Suspensions were filtered. Filtrate was analyzed by HPLC-UV and compared against a standard curve to determine the solution concentration of the crystal form.

[2] = Moisture sorption (dynamic vapor sorption, DVS); type: physicochemical; details: 25° C.; for Vapor sorption behaviour (hygroscopicity, form conversion): DVS 0-95% RH
Experimental: Moisture balance was collected using a dynamic vapor sorption (DVS) analyzer. Relative humidity (RH) was set to 0, 5, 15, 25, 35, 45, 55, 65, 75, 85 and 95% RH for 2 sorption/desorption cycles at 25° C. Equilibration criteria was set at 0.001% weight. Approximately 10 mg of sample was used.

Row | Compound | pH given with the water solubility [1] | Water solubility [1] | other results
1 | COC(=O)N1CCN(Cc2cccc(NC(=O)Nc3ccc(C)nc3)c2F)CC1 [Amorphous hydrochloride salt, omecamtiv mecarbil] |  |  | Vapor sorption behaviour (hygroscopicity, form conversion) [2]: hygroscopic and converts to the crystalline bis-hydrochloride monohydrate Form A; Vapor sorption behaviour (hygroscopicity, form conversion) ([2]; listed as amorphous hydrochloride salt): weight loss due to crystallization to Form A up to 95% RH; Moisture sorption weight gain ([2]; by 50% RH): ~11%
2 | COC(=O)N1CCN(Cc2cccc(NC(=O)Nc3ccc(C)nc3)c2F)CC1 [Bis-naphthalate-2-sulfonate crystalline salt] [omecamtiv mecarbil] |  |  | Solubility in pH 1 buffer [1]: greater than 10 mg/mL; Solubility in pH 4.5 buffer [1]: greater than 10 mg/mL
3 | COC(=O)N1CCN(Cc2cccc(NC(=O)Nc3ccc(C)nc3)c2F)CC1 [Bis-mesylate crystalline salt form B, omecamtiv mecarbil] |  |  | Solubility in pH 1 buffer [1]: greater than 23 mg/mL; Solubility in pH 4.5 buffer [1]: greater than 23 mg/mL
4 | COC(=O)N1CCN(Cc2cccc(NC(=O)Nc3ccc(C)nc3)c2F)CC1 [Bis-malonate crystalline salt, omecamtiv mecarbil] | 3.69 | greater than 62 mg/mL | 
5 | COC(=O)N1CCN(Cc2cccc(NC(=O)Nc3ccc(C)nc3)c2F)CC1 [Bis-fumarate crystalline salt form C, omecamtiv mecarbil] | 3.1 | 13700 µg/mL | 

Continued, in another order:

Row | pH given with the water solubility [1] | Water solubility [1] | Compound | other results
6 | 3.28 | > 53000 µg/mL | COC(=O)N1CCN(Cc2cccc(NC(=O)Nc3ccc(C)nc3)c2F)CC1 [Bis-tartrate crystalline salt form A, omecamtiv mecarbil] | 
7 | 3.5 | 9000 µg/mL | COC(=O)N1CCN(Cc2cccc(NC(=O)Nc3ccc(C)nc3)c2F)CC1 [Bis-sulfate crystalline salt form B, omecamtiv mecarbil] | 
8 | 4.7 | 7400 µg/mL | COC(=O)N1CCN(Cc2cccc(NC(=O)Nc3ccc(C)nc3)c2F)CC1 [Hemi-succinate crystalline salt, omecamtiv mecarbil] | 
9 | 3.7 | 3800 µg/mL | COC(=O)N1CCN(Cc2cccc(NC(=O)Nc3ccc(C)nc3)c2F)CC1 [bis-maleate crystalline salt form A, omecamtiv mecarbil] | 
10 | 2.35 | 300 µg/mL | COC(=O)N1CCN(Cc2cccc(NC(=O)Nc3ccc(C)nc3)c2F)CC1 [Mono-napadisylate crystalline salt, omecamtiv mecarbil] | 
11 | 1.5 | 16000 µg/mL | COC(=O)N1CCN(Cc2cccc(NC(=O)Nc3ccc(C)nc3)c2F)CC1 [Bis-sulfate crystalline salt form A, omecamtiv mecarbil] | 
12 | 1.39 | greater than 72 mg/mL | COC(=O)N1CCN(Cc2cccc(NC(=O)Nc3ccc(C)nc3)c2F)CC1 [Mesylate crystalline salt form A, omecamtiv mecarbil] | 
